Measured values: patent US7709538B2 (Sagittarius Life Science Corp., priority 2004, dated 2010)
Values joined by “and” are separate entries in the source; they are usually repeats but may differ in a detail not shown here. Equal entries are not always repeated. “Also recorded” adds a separate entry of the source. Marks after values point to notes of the source that are not given here.

Experiments:
different types of cells = test: Cell proliferation assay, different types of cells; type: cell-based; settings: dose-dependent, 10-500 μg/ml, 48 h
Source text: (§1) FIG. 1. […] The pictures were taken at 400× magnification. […] Each data represent mean±SD of quadruplicate experiments. Asterisks indicated statistic significance versus control (P<0.001).

Lewis lung carcinoma = test: Treatment of Lewis lung carcinoma in mice; type: in vivo
Protocol: FIG. 6. […] The subcutaneous dorsa of mice were implanted with Lewis lung carcinomas. […] Each point represents mean±SEM for ten mice.
FIG. 7. […] The subcutaneous dorsa of mice were implanted with Lewis lung carcinomas. […] Each point represents mean±SEM for ten mice.
Animal study was carried out in the animal facility of Kaohsiung Veterans General Hospital in accordance with institutional guidelines. Male C57BL/6J mice (6- to 8-week-old; Animal Center of National Cheng Kung University, Taiwan) were used. Mice were acclimated and caged in groups of four or less. All mice were fed with a diet of animal chow and water ad libitum. Animals were anesthetized in a methoxyflurane chamber prior to all procedures and were observed until fully recovered. Animals were sacrificed by a lethal dose of methoxyflurane.
Treatment of Lewis Lung Carcinoma
C57BL/6J mice were implanted with Lewis lung carcinomas cells using the techniques described previously (O'Reilly et al., Cell 88, 277-285, 1997). Briefly, the LL2 Lewis lung carcinoma cells were resuspended in PBS at the concentration of 2.5×10^6 cells per ml and injected into C57B16/J mice (n=20) with 0.1 ml of the cell suspension to induce tumor. Tumors were measured with a dial-caliper and volumes were determined using the formula width^2×length×0.52. […] In addition, the survival rate of mice in different groups was recorded and analyzed by Kaplan-Mier Survival analysis.

[1] = tested on: bFGF-induced angiogenesis in rat corneas; test: Corneal angiogenesis, implanted hydron pellets; type: in vivo; settings: for Area (mm^2) of neovascularization / Length (mm) of new vessels: day 7
[2] = tested on: bFGF-induced corneal angiogenesis; test: Corneal angiogenesis, topical application of eye drops; type: in vivo
Protocol: FIG. 9. […] (A) Representative photographs of basic fibroblast growth factor (bFGF)-implanted corneas after topical application of control (phosphate buffered saline, PBS) eye drop (left panel) and ST104P-containing eye drop (50 μg/ml, middle panel; 100 μg/ml, right panel) for 7 days. The asterisk represents the place of hydron pellet implantation. […] Data represent mean±SEM (n=8 per group).
FIG. 10. Histological analysis of basic fibroblast growth factor (bFGF)-implanted rat cornea after ST104P eye drop treatment. After eye drop treatment for 7 days, the bFGF-implanted rat corneas were harvested and stained with hematoxylin and eosin (200×). […] Neocapillaries (arrowheads) are prominent in the corneal stroma.
(§2) All rats were handled in accordance with the Association for Research in Vision and Ophthalmology Resolution on the Use of Animals in Research. Male Sprague-Dawley rats (300-350 g, Animal Center, National Science Counsel, Taipei, Taiwan) were used in this study. All surgical procedures were performed using sterile techniques. The rats were placed under anesthesia with 3% isoflurane in an O2/room air mixture (1:1). Additional topical anesthesia (0.4% benoxinate hydrochloride, Ciba Vision Ltd., Hettlingen, Switzerland) was applied to the corneal surface. The eyes were exposed by grasping the temporal limboconjunctiva using a jeweler's forceps and the central-peripheral corneal intrastromal lamellar pocket (0.6×1.5×1 mm for depth×length×width) was dissected with a surgical blade (Paragon no. 11; Maersk Medical LTD, Sheffield, England). The pockets were extended 1.5 to 2 mm away from the limbus. The pellet was grasped by smooth forceps from the refrigerator (−20° C.) and immediately implanted into the corneal stromal pocket in each eye. Topical antibiotic ointment (0.3% gentamycin; Alcon Cusi, Spain) was applied to the corneal surface to reduce irritation and prevent infection.
Topical Application of ST104P
(§3) Biomicroscopic Examination
(§4) Examinations were made with a dissecting microscope and results were photographed on days 3, 5 and 7. Under anesthesia, the maximum vessel length and width of the neovascularization in rat eyes were measured and calibrated using a microscale (Nikon, Tokyo, Japan). The area of neovascularization of the cornea was determined from the dimensions of the triangular growth pattern of the vessels. Photographs of the corneal angiogenesis assay were obtained and digitized in a 640×480 pixel matrix, using a digital camera CoolPix 995 (Nikon, Tokyo, Japan). The operator was blinded to experimental design. Areas containing blood vessels were traced on the computer monitor and calculated with image analysis software (Scion Image 4.02; Scion, Maryland, USA) and reported in square millimeters with determinations. The biomicroscopic assessment was conducted by two independent observers.
After treatment, the rat corneas were dissected and fixed in […]. The […]-embedded tissues were sectioned in 5-μm slices, mounted on poly-L-lysine-coated slides and subjected to hematoxylin and eosin staining.
(§5) To analyze the differences between groups, Mann-Whitney U test analysis with two-tailed probability was used and a P value of less than 0.05 was considered significant. Results are presented as means±SEM (standard error of the mean). For each experiment, surgery was performed on all animals in a standardized fashion, and animals were randomized to the different treatment and control groups.

EA.hy926 cells = test: Tube formation assay in Matrigel; type: cell-based, Human; settings: ST104P 20-100 μg/ml
[3] = tested on: bFGF-induced angiogenesis in rat corneas; test: Corneal angiogenesis, implanted hydron pellets; type: in vivo; settings: pellets with bFGF 100 ng, alone or plus ST104P 500 ng, day 7
Protocol: FIG. 8. […] The asterisk represents the place of hydron pellet implantation. (B) The neovascularization in rat corneas after implantation bFGF hydron pellets or pellets containing bFGF and ST104P. The length (panel a) and area (panel b) of neovascularized vessels in rat corneas were measured after implantation for 3-7 days. Data are means±SEM (n=8 per group). *P<0.01.
as §2
Implanting Hydron Pellets
as §3, §4, §5

[4] = Tolerability in animals via various routes (data not shown); type: in vivo; settings: oral or intravenous, intraperitoneal, and intratumor injection
[5] = tested on: secretion of MMP-2 by endothelial cells; test: MMPs gelatin zymography of conditioned media of endothelial cells; type: cell-based; settings: endothelial cells (BAEC, EA.hy926), even at dose as low as 10 μg/ml, 24 h
Protocol: (§6) Matrix Metalloproteinases (MMPs) Zymography
(§7) Secretion of MMPs by endothelial cells was assessed by 0.1% gelatin-SDS-PAGE zymography. Briefly, endothelial cells near 80% confluence were washed twice with serum-free media and treated with various doses of vasostatin for 24-48 h. Conditioned media were collected and assayed for protein concentration by Bradford assay. Aliquots of conditioned media were subjected to separation with 10% SDS-PAGE containing 0.1% type A gelatin (Sigma; St. Louis, Mo.). After electrophoresis, gel was washed twice with 2.5% Triton X-100, incubated in buffer containing 40 mM Tris-HCl, pH […], 0.01% sodium azide at 37° C. for 12-24 h, stained with 0.25% Coomassie Blue R-250 in 50% methanol and 10% acetic acid for 1 h, and destained with 10% acetic acid, 20% methanol. The gelatinolytic regions by MMPs were visualized as white bands in blue background.

[6] = tested on: secretion of MMP-9 by endothelial cells; test: as above; type: cell-based; settings: endothelial cells (BAEC, EA.hy926), even at dose as low as 10 μg/ml, 24 h
Protocol: as §6, §7

EA.hy926 = settings: EA.hy926, incubation 6 h, bFGF 100 ng/ml
Protocol: (§8) FIG. 2. […] After trypsinization, endothelial cells were applied to top wells in Boyden chamber to initiated migration toward chemoattractant bFGF (100 ng/ml) in the bottom wells. The migrated cells on filter were stained and counted. Each point represents mean±SEM of triplicate experiments.
(§9) The compartments were separated by a polycarbonate filter (8-μm pore size; Nucleopore, Costar, Cambridge, Mass.) coated with 0.005% gelatin to allow cell adhesion. After incubation for 2-4 h in a humidified 5% CO2 atmosphere at 37° C., cells on the upper side of the filter were removed, and those that had migrated to the lower side were fixed in absolute ethanol, stained with 10% Giemsa solution (Merck, Germany), and counted as a mean±SD per filter under five different high power fields.

BAEC [7] = settings: incubation 6 h, bFGF 100 ng/ml
Protocol: as §8, §9

[8] = tested on: neovascularization in chicken embryos (CAM); test: Chorioallantoic membrane (CAM) assay
Protocol: The angiogenesis profiles on CAMs were recorded under dissection microscope.
Chorioallantoic Membrane (CAM) Assay
Briefly, fertilized White Leghorn chicken eggs were purchased from Taiwan Provincial Research Institute for Animal Health (Hsin-Chu, Taiwan) and incubated at 37° C. with 60% humidity. On day 3, a square window was opened in the shell, and 2 to 3 ml of albumen was removed to allow detachment of the developing CAM. The window was sealed with a glass, and the eggs were returned to the incubator. […] The CAMs were examined daily until day 10-12, when the angiogenic response peaks, and photographed in ovo with a stereomicroscope equipped with Zeiss MC63 camera system (Zeiss, Oberkochen, Germany). The experiments were carried out using 10 eggs per group.

BAEC [9] = test: Tube formation assay in Matrigel; type: cell-based, Bovine; settings: ST104P 20-100 μg/ml
Protocol: FIG. 3. ST104P abolished the tube formation of endothelial cells. […] Endothelial cells were applied to Matrigel-coated plate in the absence or presence of ST104P. After 8 h, the tubular structures of BAEC cells were monitored and recorded under light microscopy. The pictures were taken at 400× magnification.
Matrigel (Becton Dickinson; Bedford, Mass.) was diluted with cold serum-free medium to 10 mg/ml. Two hundred μl of the diluted solution were added to each well in 24-well plate and allowed to form a gel at 37° C. for 30 min. […] Two hundred μl of the cell suspension (3×10^4 cells) were then subsequently added to each well and incubated for 6-8 h at 37° C. in 5% CO2. Under these conditions endothelial cells form delicate networks of tubes that are detectable within 2-3 h and are fully developed after 8-12 h.

Water solubility = type: physicochemical
[10] = tested on: BAEC, HUVEC, EA.hy926 cells, 3T3 cells, GH3 cells, C6 cells, HepG2 cells, SK-Hep-1 cells, MDCK cells; test: Morphological analysis of endothelial and non-endothelial cells; type: cell-based; settings: all types of cells tested; data not shown
Source text: as §1

[11] = ST104P 500 ng pellet without bFGF
[12] = ST104P 1000 ng pellet without bFGF

tetrameric cyclic compound of 4,5-dihydroxynaphthalene-2, 7, disulfonic acid linked by methylene bridges [ST104P]
proliferation in different types of cells (different types of cells): moderately inhibited the proliferation | weight loss or adverse effects in treated mice (Lewis lung carcinoma; ST104P 100 μg injection): no evident weight loss or adverse effects | decrease of tumor size versus saline-treated group (Lewis lung carcinoma; ST104P 100 μg injection, four times): ~40% | average tumor size (Lewis lung carcinoma; ST104P 100 μg injection, four times, saline group 4876±670, P<0.05): 2620±320 mm^3 | survival of tumor-bearing mice (Lewis lung carcinoma; ST104P 100 μg, versus vehicle, Kaplan-Meier): significantly enhanced the survival rates; also recorded: survived significantly longer | Area (mm^2) of neovascularization [1, 11]: 0 mm^2 | Length (mm) of new vessels [1, 11]: 0 mm | Area (mm^2) of neovascularization [1, 12]: 0 mm^2 | Length (mm) of new vessels [1, 12]: 0 mm | induction of neovascularization by pellets without bFGF ([1]; ST104P pellets alone in rat corneas): did not induce neovascularization | average vessel length ([2]; ST104P eye drop 100 μg/ml three times daily, day 7, PBS eye drop 1.36±0.4, P<0.01): 0.39±0.15 mm | neovascularized area ([2]; ST104P eye drop 100 μg/ml three times daily, day 7, PBS eye drop 1.42±0.28, P<0.01): 0.28±0.19 mm^2 | effect on bFGF-induced cornea angiogenesis ([2]; ST104P eye drop 10-20 μg/ml): did not elicit inhibitory effect | neovascularization by histological analysis ([2]; ST104P eye drops 50 and 100 μg/ml, 7 days, hematoxylin and eosin): no significant neovascularization | toxicity to the cornea / other eye cells by histological analysis ([2]; ST104P eye drops, 7 days): appears normal histologically without apparent adverse effects; also recorded: without overt cytotoxicity | vessel-like (tube) structure in Matrigel (EA.hy926 cells): effectively abolished | Area (mm^2) of neovascularization ([3]; listed as bFGF + ST104P): 0.12 ± 0.11* mm^2 | Length (mm) of new vessels ([3]; listed as bFGF + ST104P): 0.17 ± 0.06* mm | Area (mm^2) of neovascularization ([3]; listed as bFGF plus ST104P): 0.12±0.11 mm^2 | Length (mm) of new vessels ([3]; listed as bFGF plus ST104P): 0.17±0.06 mm | tolerability in animals [4]: well tolerated | secretion of MMP-2 [5]: potently inhibited | secretion of MMP-9 [6]: potently inhibited | IC50, migration toward chemoattractant bFGF (EA.hy926): 100 µg/mL | IC50, migration toward chemoattractant bFGF (BAEC [7]): 100 µg/mL | inhibition of angiogenesis in CAM ([8]; 50 μg per CAM, 8-day old chick embryos): 50% | mortality of chick embryos ([8]; 200 μg per CAM, 9 out of 10 died): 90% | vessel-like (tube) structure in Matrigel (BAEC [9]): effectively abolished | water solubility (Water solubility): excellent water solubility | cytotoxicity by morphological analysis [10]: not very toxic

bFGF: Recombinant basic fibroblast growth factor, used as chemoattractant and as inducer of corneal angiogenesis in hydron pellets [reference compound]
Area (mm^2) of neovascularization [3]: 1.42±0.28 mm^2 | Length (mm) of new vessels [3]: 1.36±0.4 mm and 1.36 ± 0.40 mm
